Assay results taken from patent US12139487B2, “Compounds and uses thereof” (Foghorn Therapeutics Inc., priority 2022, dated 2024).

Key:
BRM = target: T1, BRM (Homo sapiens, UniProt P51531); experiment: ATPase catalytic activity assay (ADP-Glo), BRM; type: biochemical; details: Table 10; for Ratio (BRG1 IC50 (μM) divided by BRM IC50 (μM)): ATPase assay, selectivity BRG1/BRM; for IC50: ATPase catalytic activity assay (ADP-Glo)
T1 construct: made in house; host or cells: High Five insect cells
Protocol: (§1) The ATPase catalytic activity of BRM or BRG-1 was measured by an in vitro biochemical assay using ADP-Glo™ (Promega, V9102). The ADP-Glo™ kinase assay is performed in two steps once the reaction is complete. The first step is to deplete any unconsumed ATP in the reaction. The second step is to convert the reaction product ADP to ATP, which will be utilized by the luciferase to generate luminesce and be detected by a luminescence reader, such as Envision.
The assay reaction mixture […] contains 30 nM of BRM or BRG-1, 20 nM salmon sperm DNA (from Invitrogen, UltraPure™ Salmon Sperm DNA Solution, cat #15632011), and 400 μM of ATP in the ATPase assay buffer, which comprises of 20 mM Tris, pH 8, 20 mM MgCl2, 50 mM NaCl, 0.1% Tween-20, and 1 mM fresh DTT (Pierce™ DTT (Dithiothreitol), cat #20290). The reaction is initiated by the addition of the 2.5 μL ATPase solution to 2.5 μL ATP/DNA solution on low volume white Proxiplate-384 plus plate (PerkinElmer, cat #6008280) and incubates at room temperature for 1 hour. Then, following addition of 5 μL of ADP-Glo™ Reagent provided in the kit, the reaction incubates at room temperature for 40 minutes. Then, 10 μL of Kinase Detection Reagent provided in the kit is added to convert ADP to ATP, and the reaction incubates at room temperature for 60 minutes. Finally, luminescence measurement is collected with a plate-reading luminometer, such as Envision.

BRG-1 = target: T2, BRG-1 (Homo sapiens, UniProt P51532); experiment: ATPase catalytic activity assay (ADP-Glo), BRG-1; type: biochemical; details: Table 10, read-out: BRG1 IC50
T2 construct: made in house; host or cells: High Five insect cells
Protocol: as §1
Then, following addition of 5 μL of ADP-Glo™ Reagent provided in the kit, the reaction incubates at room temperature for 40 minutes. Then, 10 μL of Kinase Detection Reagent provided in the kit is added to convert ADP to ATP, and the reaction incubates at room temperature for 60 minutes. Finally, luminescence measurement is collected with a plate-reading luminometer, such as Envision.

T2 sequence (P51532 whole entry): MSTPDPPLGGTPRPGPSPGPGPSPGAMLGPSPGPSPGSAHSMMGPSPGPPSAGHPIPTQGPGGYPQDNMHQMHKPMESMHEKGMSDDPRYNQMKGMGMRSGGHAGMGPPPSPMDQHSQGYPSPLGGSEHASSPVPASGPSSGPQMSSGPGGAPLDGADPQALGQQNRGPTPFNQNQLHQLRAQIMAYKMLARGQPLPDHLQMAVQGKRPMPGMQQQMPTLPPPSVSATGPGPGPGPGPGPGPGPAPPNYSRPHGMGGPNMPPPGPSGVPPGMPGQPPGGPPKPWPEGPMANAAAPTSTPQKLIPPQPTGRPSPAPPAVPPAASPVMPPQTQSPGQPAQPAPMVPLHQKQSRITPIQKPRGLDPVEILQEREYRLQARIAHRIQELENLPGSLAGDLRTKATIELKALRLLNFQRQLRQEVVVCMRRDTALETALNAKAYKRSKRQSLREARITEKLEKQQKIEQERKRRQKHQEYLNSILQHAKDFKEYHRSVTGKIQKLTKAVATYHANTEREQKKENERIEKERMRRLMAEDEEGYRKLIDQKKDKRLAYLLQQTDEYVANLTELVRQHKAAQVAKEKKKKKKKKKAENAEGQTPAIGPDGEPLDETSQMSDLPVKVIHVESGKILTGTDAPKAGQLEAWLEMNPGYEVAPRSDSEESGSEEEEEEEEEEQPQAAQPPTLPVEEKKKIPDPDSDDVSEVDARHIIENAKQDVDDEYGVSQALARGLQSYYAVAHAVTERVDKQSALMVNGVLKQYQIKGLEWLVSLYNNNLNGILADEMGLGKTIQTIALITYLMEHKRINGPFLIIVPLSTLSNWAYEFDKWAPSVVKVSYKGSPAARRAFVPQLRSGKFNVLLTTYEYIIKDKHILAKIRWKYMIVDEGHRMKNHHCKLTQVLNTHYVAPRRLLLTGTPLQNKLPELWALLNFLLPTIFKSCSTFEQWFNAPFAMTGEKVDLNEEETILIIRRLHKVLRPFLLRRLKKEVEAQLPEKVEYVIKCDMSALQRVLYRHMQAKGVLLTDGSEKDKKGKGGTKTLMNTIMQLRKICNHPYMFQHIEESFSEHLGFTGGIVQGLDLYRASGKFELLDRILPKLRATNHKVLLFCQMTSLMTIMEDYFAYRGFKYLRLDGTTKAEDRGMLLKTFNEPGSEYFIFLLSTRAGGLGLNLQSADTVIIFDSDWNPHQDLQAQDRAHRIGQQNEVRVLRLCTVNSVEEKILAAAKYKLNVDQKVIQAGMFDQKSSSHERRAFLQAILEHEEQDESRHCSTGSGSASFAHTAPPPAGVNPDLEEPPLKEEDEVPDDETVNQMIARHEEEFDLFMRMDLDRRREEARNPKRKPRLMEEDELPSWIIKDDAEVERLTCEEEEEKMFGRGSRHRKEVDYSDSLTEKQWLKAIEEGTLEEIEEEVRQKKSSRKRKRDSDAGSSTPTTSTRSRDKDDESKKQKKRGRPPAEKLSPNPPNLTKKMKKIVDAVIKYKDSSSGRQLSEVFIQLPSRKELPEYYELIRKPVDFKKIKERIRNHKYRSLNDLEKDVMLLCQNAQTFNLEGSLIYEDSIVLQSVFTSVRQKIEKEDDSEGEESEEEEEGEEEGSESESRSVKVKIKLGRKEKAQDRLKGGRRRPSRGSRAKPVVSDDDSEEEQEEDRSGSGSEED
T1 sequence (P51531 whole entry): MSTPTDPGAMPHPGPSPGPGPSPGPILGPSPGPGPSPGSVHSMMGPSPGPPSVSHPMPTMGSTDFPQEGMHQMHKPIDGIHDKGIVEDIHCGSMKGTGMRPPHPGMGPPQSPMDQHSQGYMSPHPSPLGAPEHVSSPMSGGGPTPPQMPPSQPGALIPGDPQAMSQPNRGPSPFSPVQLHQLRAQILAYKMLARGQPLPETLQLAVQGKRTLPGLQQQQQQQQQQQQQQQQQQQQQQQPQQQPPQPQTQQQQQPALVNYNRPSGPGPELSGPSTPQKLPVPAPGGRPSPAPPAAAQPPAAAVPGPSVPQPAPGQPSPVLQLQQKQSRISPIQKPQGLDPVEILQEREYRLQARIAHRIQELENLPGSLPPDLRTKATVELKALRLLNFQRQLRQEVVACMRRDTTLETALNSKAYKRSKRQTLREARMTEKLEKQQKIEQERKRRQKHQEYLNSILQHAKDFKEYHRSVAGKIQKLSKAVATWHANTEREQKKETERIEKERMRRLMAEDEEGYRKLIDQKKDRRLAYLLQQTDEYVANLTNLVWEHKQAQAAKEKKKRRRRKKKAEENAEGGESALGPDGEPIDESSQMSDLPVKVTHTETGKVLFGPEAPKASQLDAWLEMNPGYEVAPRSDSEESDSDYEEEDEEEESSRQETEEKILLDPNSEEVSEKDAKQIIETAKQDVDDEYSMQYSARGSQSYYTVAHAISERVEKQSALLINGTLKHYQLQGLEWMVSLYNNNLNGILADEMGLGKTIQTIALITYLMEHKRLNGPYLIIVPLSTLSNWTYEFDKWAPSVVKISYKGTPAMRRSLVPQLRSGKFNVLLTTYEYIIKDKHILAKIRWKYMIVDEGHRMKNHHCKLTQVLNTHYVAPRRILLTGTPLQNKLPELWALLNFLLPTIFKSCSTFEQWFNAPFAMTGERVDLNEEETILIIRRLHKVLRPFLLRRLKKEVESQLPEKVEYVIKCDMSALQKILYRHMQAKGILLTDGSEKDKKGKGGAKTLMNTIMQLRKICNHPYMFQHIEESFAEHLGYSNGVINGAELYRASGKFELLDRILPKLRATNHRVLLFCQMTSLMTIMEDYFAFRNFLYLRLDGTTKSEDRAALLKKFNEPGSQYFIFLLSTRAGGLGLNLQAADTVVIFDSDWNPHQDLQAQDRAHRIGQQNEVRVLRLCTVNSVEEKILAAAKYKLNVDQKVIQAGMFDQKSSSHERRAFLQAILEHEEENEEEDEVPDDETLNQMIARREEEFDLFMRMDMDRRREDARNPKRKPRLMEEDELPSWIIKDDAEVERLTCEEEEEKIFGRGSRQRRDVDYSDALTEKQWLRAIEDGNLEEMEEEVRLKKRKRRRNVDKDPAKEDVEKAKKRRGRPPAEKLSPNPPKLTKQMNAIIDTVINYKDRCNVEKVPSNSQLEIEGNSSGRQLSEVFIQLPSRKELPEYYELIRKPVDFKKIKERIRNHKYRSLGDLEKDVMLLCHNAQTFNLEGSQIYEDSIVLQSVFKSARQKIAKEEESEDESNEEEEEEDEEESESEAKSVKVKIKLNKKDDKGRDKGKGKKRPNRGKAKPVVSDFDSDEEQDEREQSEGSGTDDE

SMILES | Ratio (BRG1 IC50 (μM) divided by BRM IC50 (μM)) (BRM) | IC50 (BRM) | IC50 (BRG-1)
C[C@@H]1CN(c2cccc(-c3ccc4cnc(CNC(=O)c5cc(F)c6c(c5)S(=O)(=O)[C@H](F)C[C@H](C)O6)cc4n3)n2)C[C@H](C)O1 [Compound 34, (2S,4S)—N-((2-(6-((2S,6R)-2,6-dimethylmorpholino)pyridin-2-yl)-1,6-naphthyridin-7-yl)methyl)-4,9-difluoro-2-methyl-3,4-dihydro-2H-benzo[b][1,4]oxathiepine-7-carboxamide 5,5-dioxide] | 12.17 | 0.12 µM | 1.47 µM
COCCOc1ccc2c(c1)N(c1ccc3cnc(CNC(=O)c4cc(F)c5c(c4)S(=O)(=O)[C@@H](F)CCO5)cc3n1)CCO2 [Compound 35] | 13.74 | 0.0019 µM | 0.0233 µM
CC#Cc1ccc2c(n1)N(c1ccc3cnc(CNC(=O)c4cc(F)c5c(c4)S(=O)(=O)[C@@H](F)CCO5)cc3n1)CCO2 [Compound 37] | 15.93 | 0.002 µM | 0.0319 µM
O=C(NCc1cc2nc(N3CCOc4cc(C5CC5)cnc43)ccc2cn1)c1ccc2c(c1)S(=O)(=O)[C@@H](F)CCO2 [Compound 38] | 16.77 | 0.002 µM | 0.0339 µM
O=C(NCc1cc2nc(N3CCOc4ccc(C5CC5)nc43)ccc2cn1)c1ccc2c(c1)S(=O)(=O)[C@@H](F)COC2 [Compound 39] | 13.44 | 0.002 µM | 0.0246 µM
O=C(NCc1cc2nc(N3CCOc4cc(C5CC5)cnc43)ccc2cn1)c1cc(F)c2c(c1)S(=O)(=O)[C@@H](F)CCO2 [Compound 40] | 16.70 | 0.002 µM | 0.0385 µM
C[C@@H]1C[C@H]1c1ccc2c(n1)N(c1ccc3cnc(CNC(=O)c4cc(F)c5c(c4)S(=O)(=O)[C@@H](F)COC5)cc3n1)CCO2 [Compound 41] | 20.00 | 0.002 µM | 0.0464 µM
O=C(NCc1cc2nc(-c3cccc(OC(F)F)n3)ccc2cn1)c1ccc2c(c1)S(=O)(=O)[C@@H](F)CCOC2 [Compound 42] | 13.35 | 0.002 µM | 0.027 µM
COc1nc([C@](C)(F)C(F)F)ccc1-c1ccc2cnc(CNC(=O)c3ccc4c(c3)S(=O)(=O)[C@@H](F)CCOC4)cc2n1 [Compound 43] | – | 0.002 µM | 0.0406 µM
COc1nc([C@H](F)CF)ccc1-c1ccc2cnc(CNC(=O)c3cc(F)c4c(c3)S(=O)(=O)[C@@H](F)COC4)cc2n1 [Compound 44] | 23.96 | 0.0021 µM | 0.0641 µM
CO[C@H]1C[C@H]1c1cnc2c(c1)OCCN2c1ccc2cnc(CNC(=O)c3cc(F)c4c(c3)S(=O)(=O)[C@@H](F)CCO4)cc2n1 [Compound 45] | 12.59 | 0.0021 µM | 0.0258 µM
COc1nc([C@@H](F)CF)ccc1-c1ccc2cnc(CNC(=O)c3cc(F)c4c(c3)S(=O)(=O)[C@@H](F)COC4)cc2n1 [Compound 46] | 20.83 | 0.0023 µM | 0.0477 µM
C[C@@H]1CCN1c1cnc2c(c1)OCCN2c1ccc2cnc(CNC(=O)c3cc(F)c4c(c3)S(=O)(=O)[C@@H](F)CCO4)cc2n1 [Compound 47] | 16.31 | 0.0023 µM | 0.0543 µM
O=C(NCc1cc2nc(N3CCOc4cc(N5CCC5)cnc43)ccc2cn1)c1cc(F)c2c(c1)S(=O)(=O)[C@@H](F)COC2 [Compound 48] | 13.42 | 0.0023 µM | 0.0341 µM
O=C(NCc1cc2nc(N3CCOc4cc(N5C[C@@H](F)[C@H](F)C5)cnc43)ccc2cn1)c1cc(F)c2c(c1)S(=O)(=O)[C@@H](F)COC2 [Compound 50] | 15.78 | 0.0025 µM | 0.0387 µM
Cc1cnc2c(c1)OCCN2c1ccc2cnc(CNC(=O)c3cc(F)c4c(c3)S(=O)(=O)[C@@H](F)CCO4)cc2n1 [Compound 51] | 18.72 | 0.0025 µM | 0.0421 µM
C[C@@H]1CN(c2cccc(/C=C/c3ccnc(CNC(=O)c4cc(F)c5c(c4)S(=O)(=O)[C@@H](F)CCO5)c3)n2)C[C@H](C)O1 [Compound 52, (R)—N-((4-((E)-2-(6-((2S,6R)-2,6-dimethylmorpholino)pyridin-2-yl)vinyl)pyridin-2-yl)methyl)-4,9-difluoro-3,4-dihydro-2H-benzo[b][1,4]oxathiepine-7-carboxamide 5,5-dioxide] | 22.78 | 0.0025 µM | 0.056 µM
COc1nc(C(F)F)ccc1-c1ccc2cnc(CNC(=O)c3cc(F)c4c(c3)S(=O)(=O)[C@@H](F)COC4)cc2n1 [Compound 53] | 19.48 | 0.0025 µM | 0.0543 µM
CO[C@H]1CN(c2cccc(-c3ccc4cnc(CNC(=O)c5cc(F)c6c(c5)S(=O)(=O)[C@@H](F)COC6)cc4n3)n2)C[C@@H]1F [Compound 54] | 9.72 | 0.0025 µM | 0.0279 µM
O=C(NCc1cc2nc(N3CCOc4ccc(C5CC5)nc43)ccc2cn1)c1cc(F)c2c(c1)S(=O)(=O)[C@@H](F)CCO2 [Compound 55] | 35.69 | 0.0025 µM | 0.124 µM
[2H]C1([2H])OC([2H])([2H])[C@H](F)S(=O)(=O)c2cc(C(=O)NCc3cc4nc(N5CCOc6cc(N7CC(F)C7)cnc65)ccc4cn3)cc(F)c21 [Compound 56] | – | 0.0025 µM | 0.0582 µM
O=C(NCc1cc2nc(N3CCOc4ccc(N5CC[C@H](F)C5)nc43)ccc2cn1)c1cc(F)c2c(c1)S(=O)(=O)[C@@H](F)CCO2 [Compound 57] | 17.61 | 0.0025 µM | 0.0368 µM
O=C(NCc1cc2nc(N3CCOc4ccc(C(F)F)nc43)ccc2cn1)c1cc(F)c2c(c1)S(=O)(=O)[C@@H](F)COC2 [Compound 58] | 23.60 | 0.0025 µM | 0.0644 µM
[2H]C1([2H])OC([2H])([2H])[C@H](F)S(=O)(=O)c2cc(C(=O)NCc3cc4nc(N5CCOc6ccc(C7CC7)nc65)ccc4cn3)cc(F)c21 [Compound 59] | – | 0.0025 µM | 0.0725 µM
O=C(NCc1cc2nc(-c3ccc(C(F)F)c(C4CC4)n3)ccc2cn1)c1cc(F)c2c(c1)S(=O)(=O)[C@@H](F)CCO2 [Compound 60] | 18.66 | 0.0026 µM | 0.0531 µM
O=C(NCc1cc2nc(N3CCOc4cc(C5CC5)cnc43)ccc2cn1)c1cc(Cl)c2c(c1)S(=O)(=O)[C@@H](F)COC2 [Compound 61] | 21.08 | 0.0026 µM | 0.0485 µM
O=C(NCc1cc2nc(N3CCOc4ccc([C@H](F)CF)nc43)ccc2cn1)c1cc(F)c2c(c1)S(=O)(=O)[C@@H](F)COC2 [Compound 62] | 28.84 | 0.0026 µM | 0.0797 µM
O=C(NCc1cc2nc(N3CCOc4ccc(N5CC(F)C5)nc43)ccc2cn1)c1cc(F)c2c(c1)S(=O)(=O)[C@@H](F)COC2 [Compound 63] | 23.13 | 0.0026 µM | 0.0587 µM
